# Reference: publication PMC8372404 (Frontiers in Neuroscience, 2021)
# Like-named read-outs stand apart in the source and are kept apart here.
# Key:
# [1] = target: [3H]-LCGA-17 binding site in rat brain membranes (putative α2δ); assay: [3H]-LCGA-17 radioligand competition binding assay
# [2] = tested on: Danio rerio; assay: Light–dark box (LDB); type: in vivo; conditions: for LDB. Time spent in lit compartment, Median: 5 min session, exp group; for LDB, effect on time spent in the lit compartment vs vehicle: most informative dosage, Figure 2C
# Method: (§1) Control groups were treated in parallel with vehicle alone. For drug injection, the fish were anesthetized briefly by placing them in 10°C water. The vehicle controls were tested in parallel.
# (§2) Behavioral testing was initiated 10 min after drug injection, starting with the novel tank test (NTT), followed immediately thereafter by the light–dark box (LDB) and the social preference test (SPT). The NTT was adapted from [Maximino et al. (2013)] with the behavior video-recorded and the data processed using EthoVision XT14 (Noldus). The distance traveled, speed, number of visits to the bottom, middle and top thirds of the aquarium, respectively, and the times spent in each of these zones during the initial 5 min in the tank were recorded. A decreased time spent at the surface of the NTT apparatus reflects a reduction in exploratory behavior or increased hiding motivation ([Sackerman et al., 2010]). The behavior in the LDB ([Maximino et al., 2011]) and SPT ([Parker et al., 2014]) was video recorded and processed using RealTimer (Open Science LCC, Russia). The fish were added to the center zone of a three-zone aquarium and allowed to adapt for 1–2 min before removal of the septa separating the center from the flanking zones. The time spent and the number of visits to the light and dark flanking zones and the latency to enter the lit zone were recorded during a 5-min session. Stress of fish is associated with increased time spent in the dark compartment (scototaxis) ([Maximino et al., 2011]). For the SPT, the residence time and the number of visits to the three equally sized zones (near the shoal, in the center zone of the aquarium, and near the wall opposite to the shoal) were assessed during a 5-min session. Increased shoal preference (shoaling reflex) is thought to represent a protective response to a predator ([Nguyen et al., 2014]). All behavioral testing was done in the light phase using 500 lux (NTT, LDB) or 200 lux (SPT) illumination.
# [3] = tested on: Danio rerio; assay: Novel tank test (NTT); type: in vivo; conditions: for NTT. Time spent in upper half of tank, Median: 10 min after injection, 5 min; for NTT. Time spent in upper half of tank, Median / NTT. Distance traveled, Median: exp group
# Method: as §1, §2
# [4] = tested on: Danio rerio; assay: Social preference test (SPT); type: in vivo; conditions: for SPT. Time spent out of shoaling zone, Median: 5 min session, exp group; for SPT, effect on time spent out of the shoaling zone vs vehicle: most informative dosage, Figure 2D
# Method: as §1, §2
# [5] = competition of [3H]-LCGA-17 (16 nM) binding, rat brain membranes, Table S1
# [6] = rat brain membranes, result in words
# [7] = competition of [3H]-LCGA-17 binding to rat brain (cortical) membranes, text and Figure 3
molecule,measurement,setting,value
CC1(C)CC(=O)c2c(SCCO)sc(-c3nccs3)c2C1 [TB21007],IC50,[1]; [5],> 100 µM
same,cross-reactivity with / competition at the [3H]-LCGA-17 binding site,[1]; [6],distinct
TrpAspGlnVal (WDQV; printed: TrpAspGlnVal) [LCGA-59],"LDB. Time spent in lit compartment, Median",[2]; 1 mg/kg i.p.,74 s
same,"LDB. Time spent in lit compartment, Median",[2]; 10 mg/kg,87 s
same,"LDB, effect on time spent in the lit compartment vs vehicle",[2],Neither fluvoxamine (5 mg/kg) nor LCGA-59 and LCGA-83 (10 mg/kg) affected the behavior
same,"NTT. Time spent in upper half of tank, Median",[3]; 1 mg/kg i.p.,69 s
same,"NTT. Distance traveled, Median",[3]; 1 mg/kg i.p.,1730 cm
same,"NTT. Time spent in upper half of tank, Median",[3]; 10 mg/kg,74 s
same,"NTT. Distance traveled, Median",[3]; 10 mg/kg,1636 cm
same,"SPT. Time spent out of shoaling zone, Median",[4]; 1 mg/kg i.p.,52 s
same,"SPT. Time spent out of shoaling zone, Median",[4]; 10 mg/kg,88 s
same,"SPT, effect on time spent out of the shoaling zone vs vehicle",[4],failed to affect behavior
CN1CCC[C@H]1c1cccnc1 [Nicotine],IC50,[1],> 100 µM
same,cross-reactivity with / competition at the [3H]-LCGA-17 binding site,[1],no cross-reactivity
O=C(CCCN1CCC2(CC1)C(=O)NCN2c1ccccc1)c1ccc(F)cc1 [Spiperone],cross-reactivity with / competition at the [3H]-LCGA-17 binding site,[1]; [6],no cross-reactivity
NCc1cc(=O)[nH]o1 [Muscimol],cross-reactivity with / competition at the [3H]-LCGA-17 binding site,[1],no cross-reactivity
same,IC50,[1]; [5],> 100 µM
NCC(=O)O [Glycine],IC50,[1],> 100 µM
same,cross-reactivity with / competition at the [3H]-LCGA-17 binding site,[1],no cross-reactivity
CCCCCCN(CCCCCC)C(=O)Cc1c(-c2ccc(F)cc2)[nH]c2ccccc12 [FGIN-1-27],cross-reactivity with / competition at the [3H]-LCGA-17 binding site,[1],distinct
same,IC50,[1]; [5],> 100 µM
O=C(O)C1=CCNCC1 [isoguvacine],cross-reactivity with / competition at the [3H]-LCGA-17 binding site,[1]; [6],distinct
CC(C(O)c1ccc(O)cc1)N1CCC(Cc2ccccc2)CC1 (centres unmarked) [Ifenprodil],IC50,[1]; [5],> 100 µM
AspLysThrGlu (DKTE; printed: AspLysThrGlu) [LCGA-26],"LDB. Time spent in lit compartment, Median",[2]; 1 mg/kg i.p.,215 s
same,"LDB. Time spent in lit compartment, Median",[2]; 10 mg/kg,243 s
same,"NTT. Time spent in upper half of tank, Median",[3]; 1 mg/kg i.p.,58 s
same,"NTT. Distance traveled, Median",[3]; 1 mg/kg i.p.,1365 cm
same,"NTT. Time spent in upper half of tank, Median",[3]; 10 mg/kg,72 s
same,"NTT. Distance traveled, Median",[3]; 10 mg/kg,1445 cm
same,"SPT. Time spent out of shoaling zone, Median",[4]; 1 mg/kg i.p.,20 s
same,"SPT. Time spent out of shoaling zone, Median",[4]; 10 mg/kg,27 s
O=C(N/N=C/c1ccccc1O)c1ccccc1O [Salicylidene salicylhydrazide],cross-reactivity with / competition at the [3H]-LCGA-17 binding site,[1],distinct
same,IC50,[1]; [5],> 100 µM
C[C@@H](CN1CCC(Cc2ccccc2)CC1)[C@@H](O)c1ccc(O)cc1 [Ro-256981],IC50,[1]; [5],> 100 µM
same,cross-reactivity with / competition at the [3H]-LCGA-17 binding site,[1]; [6],no cross-reactivity
Cn1c2ccc(F)cc2c2c(C(=O)N3CCCC3)cn(-c3ccccc3)c(=O)c21 [SL 651498],IC50,[1]; [5],> 100 µM
same,cross-reactivity with / competition at the [3H]-LCGA-17 binding site,[1]; [6],distinct
O=C(CCCN1CCC(O)(c2ccc(Cl)cc2)CC1)c1ccc(F)cc1 [Haloperidol],cross-reactivity with / competition at the [3H]-LCGA-17 binding site,[1]; [6],no cross-reactivity
PheLeuProTyr (FLPY; printed: PheLeuProTyr) [LCGA-83],"LDB. Time spent in lit compartment, Median",[2]; 1 mg/kg i.p.,128 s
same,"LDB. Time spent in lit compartment, Median",[2]; 10 mg/kg,249 s
same,"LDB, effect on time spent in the lit compartment vs vehicle",[2],Neither fluvoxamine (5 mg/kg) nor LCGA-59 and LCGA-83 (10 mg/kg) affected the behavior
same,"NTT. Time spent in upper half of tank, Median",[3]; 1 mg/kg i.p.,73 s
same,"NTT. Distance traveled, Median",[3]; 1 mg/kg i.p.,1500 cm
same,"NTT. Time spent in upper half of tank, Median",[3]; 10 mg/kg,76 s
same,"NTT. Distance traveled, Median",[3]; 10 mg/kg,1589 cm
same,"SPT. Time spent out of shoaling zone, Median",[4]; 1 mg/kg i.p.,37 s
same,"SPT. Time spent out of shoaling zone, Median",[4]; 10 mg/kg,46 s
same,"SPT, effect on time spent out of the shoaling zone vs vehicle",[4],failed to affect behavior
N[C@@H](CCC(=O)O)C(=O)O [Glutamate],IC50,[1]; [5],> 100 µM
same,cross-reactivity with / competition at the [3H]-LCGA-17 binding site,[1]; [6],no cross-reactivity
NCC(CC(=O)O)c1ccc(Cl)cc1 (centres unmarked) [Baclofen],IC50,[1]; [5],> 100 µM
same,cross-reactivity with / competition at the [3H]-LCGA-17 binding site,[1]; [6],no cross-reactivity
CC(=O)[C@H]1CC[C@H]2[C@@H]3CC=C4C[C@@H](O)CC[C@]4(C)[C@H]3CC[C@]12C [Pregnenolone],IC50,[1]; [5],> 100 µM
C[C@]12CC[C@@H](O)C[C@H]1CC[C@@H]1[C@@H]2CC[C@]2(C)[C@@H](C(=O)CO)CC[C@@H]12 [THDOC],cross-reactivity with / competition at the [3H]-LCGA-17 binding site,[1],distinct
same,IC50,[1]; [5],> 100 µM
NCC1(CC(=O)O)CCCCC1 [Gabapentin],IC50,[1]; [7],~11 µM
same,IC50,"[1]; competition of [3H]-LCGA-17 binding to rat brain (cortical) membranes, text and Figure 3, listed as gabapentin",11 µM
"NCCCC(=O)O [GABA, γ-aminobutyric acid]",cross-reactivity with / competition at the [3H]-LCGA-17 binding site,[1]; [6],no cross-reactivity
CCC(C)N(C)C(=O)c1cc2ccccc2c(-c2ccccc2Cl)n1 (centres unmarked) [PK-11195],IC50,[1]; [5],> 100 µM
pregnenolone sulfate [PREGS],IC50,[1]; [7],> 100 µM
same,cross-reactivity with / competition at the [3H]-LCGA-17 binding site,[1]; [6],failed to compete
CC(C)(C)OC(=O)c1ncn2c1[C@@H]1CCCN1C(=O)c1c(Br)cccc1-2 [Bretazenil],IC50,[1],> 100 µM
same,cross-reactivity with / competition at the [3H]-LCGA-17 binding site,[1],distinct
NC(N)=NCCCCN=C(N)N [Arcaine],IC50,[1]; [5],> 100 µM
same,cross-reactivity with / competition at the [3H]-LCGA-17 binding site,[1]; [6],no cross-reactivity
CCN1CCCC1CNC(=O)c1cc(S(N)(=O)=O)ccc1OC (centres unmarked) [Sulpiride],IC50,[1]; [5],> 100 µM
same,cross-reactivity with / competition at the [3H]-LCGA-17 binding site,[1]; [6],no cross-reactivity
Cn1ncnc1COc1nn2c(-c3c(F)cccc3F)nnc2cc1C1CCC1 [MK0343],IC50,[1]; [5],> 100 µM
same,cross-reactivity with / competition at the [3H]-LCGA-17 binding site,[1]; [6],distinct
Cc1ccc(-c2nc3ccc(C)cn3c2CC(=O)N(C)C)cc1 [Zolpidem],IC50,[1],> 100 µM
CCCN(CCC)C1CCc2ccc(O)cc2C1 (centres unmarked) [7-OH-DPAT],cross-reactivity with / competition at the [3H]-LCGA-17 binding site,[1],no cross-reactivity
same,IC50,[1]; [5],> 100 µM
O=C(c1ccc(F)cc1)C1CCN(CCn2c(=O)[nH]c3ccccc3c2=O)CC1 [Ketanserin],IC50,[1]; [5],> 100 µM
same,cross-reactivity with / competition at the [3H]-LCGA-17 binding site,[1]; [6],no cross-reactivity
"COCCCC/C(=N\OCCN)c1ccc(C(F)(F)F)cc1 [fluvoxamine, Fluvoxamine]","LDB. Time spent in lit compartment, Median",[2]; 5 mg/kg,118 s
same,"LDB. Time spent in lit compartment, Median",[2]; 10 mg/kg,94 s
same,"LDB, effect on time spent in the lit compartment vs vehicle",[2],Neither fluvoxamine nor the other LCGA peptides affected the behavior
same,"NTT. Time spent in upper half of tank, Median",[3]; 5 mg/kg,41 s
same,"NTT. Distance traveled, Median",[3]; 5 mg/kg,1267 cm
same,"NTT. Time spent in upper half of tank, Median",[3]; 10 mg/kg,32 s
same,"NTT. Distance traveled, Median",[3]; 10 mg/kg,1313 cm
same,"NTT, effect on time spent in the upper half of the tank vs vehicle","[3]; most informative dosage, Figure 2A: LCGA peptides 10 mg/kg, fluvoxamine 5 mg/kg, diazepam 5 mg/kg",anxiolytic-like effect
same,"SPT. Time spent out of shoaling zone, Median",[4]; 5 mg/kg,90 s
same,"SPT. Time spent out of shoaling zone, Median",[4]; 10 mg/kg,84 s
same,"SPT, effect on time spent out of the shoaling zone vs vehicle",[4],failed to affect behavior
NCCCNCCCCNCCCN [Spermine],IC50,[1]; [5],> 100 µM
same,cross-reactivity with / competition at the [3H]-LCGA-17 binding site,[1]; [6],no cross-reactivity
Fc1ccc(C(OCCN2CCN(CCCc3ccccc3)CC2)c2ccc(F)cc2)cc1 [GBR-12909],IC50,[1]; [5],> 100 µM
"Oc1noc2c1CCNC2 [Gaboxadol (THIP), Gaboxadol]",IC50,[1],> 100 µM
same,cross-reactivity with / competition at the [3H]-LCGA-17 binding site,[1],distinct
COc1ccc(-c2ccc(=N)n(CCCC(=O)O)n2)cc1 [Gabazine],IC50,[1]; [5],> 100 µM
same,cross-reactivity with / competition at the [3H]-LCGA-17 binding site,[1]; [6],no cross-reactivity
COc1ccc(-n2nc3c4ccccc4[nH]cc-3c2=O)cc1 [CGS-9895],IC50,[1]; [5],> 100 µM
same,cross-reactivity with / competition at the [3H]-LCGA-17 binding site,[1]; [6],no cross-reactivity
CC(=O)[C@H]1CC[C@H]2[C@@H]3CC[C@H]4C[C@H](O)CC[C@]4(C)[C@H]3CC[C@]12C [Allopregnanolone],IC50,[1],> 100 µM
same,cross-reactivity with / competition at the [3H]-LCGA-17 binding site,[1],distinct
N[C@@]1(C(=O)O)CC[C@H]2[C@H](C(=O)O)[C@H]21 [LY-354740],IC50,[1]; [5],> 100 µM
same,cross-reactivity with / competition at the [3H]-LCGA-17 binding site,[1]; [6],no cross-reactivity
